The NIST ThermoML archive (doi:10.1016/j.jct.2015.08.011)

What was measured:
[1] = 101.33 kPa, Liquid, Vibrating tube method
[2] = excess molar enthalpy (molar enthalpy of mixing); xn = mol fraction of the nth substance listed; settings: 298.15 K, 101 kPa, Liquid, Flow calorimetry

CO [methanol]
Settings | mass density [kg/m3]
[1], 298.15 K | 786.2

COC(C)(C)CC(C)(C)C [methyl 1,1,3,3-tetramethylbutyl ether]
[1]
Settings | mass density [kg/m3]
298.15 K | 792.4
308.15 K | 784.1
318.15 K | 776
328.15 K | 767.6
338.15 K | 759.2
348.15 K | 750.7
358.15 K | 742.1
368.15 K | 733.4
378.15 K | 724.5
388.15 K | 715.5
398.15 K | 706.3
408.16 K | 696.8

COC(C)(C)CC(C)(C)C [methyl 1,1,3,3-tetramethylbutyl ether] + CO
[2]
Settings | excess molar enthalpy [kJ/mol]
x2 = 0.051 | 0.199
x2 = 0.097 | 0.321
x2 = 0.193 | 0.459
x2 = 0.299 | 0.526
x2 = 0.391 | 0.537
x2 = 0.489 | 0.518
x2 = 0.591 | 0.468
x2 = 0.695 | 0.404
x2 = 0.794 | 0.308
x2 = 0.896 | 0.178
